Source: patent EP4385508A1, “FURAN FATTY ACIDS FOR ENHANCING MUSCLE MASS” (Centre de Coopération Internationale en Recherche …, priority 2022, dated 2024)

Assays:
C2C12 myoblasts = assay: C2C12 myoblast differentiation, fusion index by cytoimmunofluorescence; assay type: cell-based, Mouse; settings: 5 days in differentiation medium
Experimental: (§1) Mouse myoblasts of the C2C12 cell line (ATCC) were seeded at a plating density of 7000 cells/cm2 in 6-well plates. They were grown in DMEM high glucose (4.5g/l) supplemented with gentamycin (50 µg/mL), amphotericin (50 µg/mL), and fetal calf serum (10%). Terminal differentiation was induced at cell confluence by lowering the medium serum concentration (0.5%).
(§2) When indicated, FuFA-F2 was added to the culture medium at the indicated concentration. For the differentiation studies, FuFA-F2 was added at the confluence at the same time as the change in media condition. Three doses of FuFA-F2 were studied at a final concentration of 1, 10, or 50 µM. Human insulin was used at a concentration of 100 nM.
Cytoimmunofluorescence myoblast differentiation was assessed by observation of morphological changes and accumulation of muscle-specific markers. After methanol fixation and three washes with PBS-gelatin (0.2%), cells were labeled with an antibody raised against Troponin T (T6277, Sigma, diluted at 1:50) (Sigma-Aldrich, Saint-Quentin Fallavier, France). Nuclei were stained with Hoechst 33258 (1 µg/mL). To assess the extent of differentiation, the fusion index (percentage of nuclei incorporated into myotubes relative to the total number of nuclei) was calculated 120 h after adding the differentiation medium. Nuclei were counted on 10 images/dish using ImageJ software. […]

C57BL/6J mice = assay: High Fat and High Sucrose (HFHS) diet with FuFA-F2, quadriceps muscle mass; assay type: in vivo; settings: 12 weeks
Experimental: Forty six-weeks old male C57BL/6J mice (Charles River, L'Arbresle, France), weighing about 21 g, were housed (5 per cage) under conditions of constant temperature (20-22°C), humidity (45-50%) and a standard dark cycle (20.00-08.00 hours). The mice were randomized, according to their initial weight, into four groups of ten animals and fed for 12 weeks with one of the four following semi-purified diets: 1) control diet, 2) HFHS diet, 3) HFHS + FuFA-F2 (0.048%, 40mg/kg body weight/day), 4) HFHS + FuFA-F2 (0.127%, 105mg/kg body weight/day). In this example, "FuFA-F2" is the triacylglycerol form of FuFA-F2.
The control diet contains 5% lipids as a mixture of rapeseed oil, high oleic sunflower oil, sunflower oil and linseed oil (oil mixture of Carrefour), the high fat high sucrose (HFHS) diets contain 25% lipids (5% of a mixture of rapeseed oil, high oleic sunflower oil, sunflower oil and linseed oil and 20% of lard) and 30% sucrose. The detailed composition of the diets is given in Table 1 at the end of the present description. […]
Throughout the study, mice were given free access to food and tap water. Mice body weight was followed weekly and food consumption was determined every two days (during the week) or three days (the week-end). […]
Results were expressed as means ± SD. […]

Citrate synthase = Citrate synthase activity of C2C12 myotubes; assay type: cell-based, Mouse; settings: 3 days of treatment of C2C12 myotubes
Experimental: as §1, §2
Mitochondrial respiratory complex activities were determined as previously described (Casas et al., 2008, PloS ONE, Vol. 3(6) : e2501). Citrate synthase (CS) activity was measured according to Srere (Srere et al., 1967, Science, Vol. 158(3803) : 936-937) by following the color formation of 5-thio-2-nitrobenzoic acid at 412 nm. The enzymatic activity of complex IV (cytochrome c oxidase) was measured according to Wharton and Tzagoloff (Wharton et al., 1967, Methods in Enzymology, Vol. 10, Edn Elsevier BV, Amsterdam, The Netherlands), a spectrophotometer following the oxidation of reduced cytochrome c at 550 nm, pH 7.4, and 37 °C. Cytochrome c was reduced with sodium dithionite. […]

CCCCCc1cc(C)c(CCCCCCCCC(=O)O)o1 [FuFA-F2]
myoblast fusion index (C2C12 myoblasts; 50 µM, 57% for control, p<0.05): 61%
myoblast fusion index (C2C12 myoblasts; 1 and 10 µM (all doses except 50 µM)): no significant effects
quadriceps muscle mass (C57BL/6J mice; HFHS diet + FuFA-F2 (triacylglycerol form) at any dose (40 and 105mg/kg body weight/day), compared to HFHS alone): increased
quadriceps muscle mass (C57BL/6J mice; highest dose 105mg/kg body weight/day by comparison to lowest dose 40mg/kg body weight/day, HFHS diet, triacylglycerol form): significantly increased
citrate synthase activity (Citrate synthase): no effect
